In US20130158024A1, “TRICYCLIC NECROSTATIN COMPOUNDS” (priority 2005, published 2013):
“Also recorded” adds a separate entry of the source. Where two headings read alike, the source gives them in different places.

Assays:
[1] = test system: FADD-deficient Jurkat T cells treated with TNF-α; experiment: Inhibition of necroptosis (CICD) in FADD-deficient Jurkat T cells treated with TNF-α, ATP-based viability; type: cell-based, human
U937 cells = experiment: Necrosis of U937 cells induced by TNFα and zVAD.fmk (primary and secondary screen), ATP assay; type: cell-based, human; conditions: U937, 72 hours
Protocol: We plated U937 cells in 384-well plates at 5,000-10,000 cells per well in 40-μl phenol red-free RPMI 1640 medium containing 100 μM zVAD.fmk and 40 ng ml^−1 human TNFα using a Multidrop dispenser (Thermo Electron). We added 100 nl of the DiverSetE (5 mg ml^−1 in DMSO, Chembridge) using a Seiko-based custom-built pin transfer robot (Institute of Chemistry and Cell Biology, Harvard Medical School). After 72 hours, we assessed cell viability using a luminescence-based ATP assay (ATPLite-M, PerkinElmer). We also dispensed cells not treated with TNFα in each plate as a positive control. We purchased Nec-1 and other preliminary positive hits from Chembridge for individual retesting.
Using a known paradigm of death receptor mediated caspase-independent cell death in human U937 cells, we established a high-throughput screen in 384 well format for small molecule inhibitors of caspase-independent cell death (CICD). In this system, U937 cells were induced to undergo CICD in the presence of TNFα and zVAD.fmk, and the rate of cell death was determined by an ATP-Lite-M assay, a commercial luminescence-based assay measuring cellular ATP levels (Packard). U937 cells were chosen because these cells can be induced to undergo CICD very efficiently upon TNFα/zVAD treatment in the absence of additional, stress-inducing sensitizing stimuli, such as CHX, making this system perfectly suited for reliable identification of CICD inhibitors. Furthermore, rapid suspension growth kinetics of U937 cells results in the availability of large quantities of cells, which translates into robust signals ideal for high throughput screening. ATP-Lite-M assay was chosen because among all the different assay systems tested, it gives the most consistent and robust signal, which is also critical for high throughput screening. Exposure of U937 cells to TNFα alone led to partial cell death, whereas co-treatment with TNFα and caspase inhibitor zVAD.fmk produced significant increase in the amount of cell death and ATP loss consistent with the published observations. In addition, in the presence of zVAD.fmk, the morphology of cell loss changed from apoptosis with cell shrinkage, nuclear fragmentation, membrane blebbing to necrosis, characterized by cell swelling, increase in cytosolic density, and early loss of plasma membrane integrity. Other cell death assays, such as an MTT assay (mitochondrial metabolism) and Sytox assay (permeability of the plasma membrane), were used as alternative means to validate the screen, and consistently produced results similar to those obtained using ATP-Lite-M assay, which confirmed that the ATP-Lite-M assay can be used to accurately measure the extent of CICD.
In a primary screen, U-937 cells (5×10^5 or 7.5×10^5 cells/ml) were first exposed to zVAD-fmk (100 μM). Thirty minutes later the same cells were exposed to a chemical compound from the library (5 mg/ml, dissolved in 0.1-0.5 μl of DMSO, giving a final DMSO concentration of 0.3% to 1.5%). After an additional thirty minutes, TNFα (40 ng/ml) was added to the cell culture medium. The cells were then incubated at 37 C for 72 hours, and were then assayed for cellular ATP levels. […] Compounds which maintained cellular ATP levels were compounds which blocked necrosis triggered by zVAD-fmk and TNFα.
In a secondary screen, the compounds identified from the first screen, above, to decrease necrosis induced by zVAD-fmk and TNFα were assayed for their potency. Serial dilution of each chemical compound was performed and the compounds were administered to U-937 cells, as per the primary screen. The concentrations of each compound were 70 μM, 23 μM, 8 μM, and 2.5 μM. The level of necrosis occurring in response to zVAD-fmk, TNFα, and the various concentrations of chemical compounds was assayed as described above for the primary screen.

FADD deficient JK cells = experiment: MNNG-induced death of FADD deficient JK cells; type: cell-based, human; conditions: 30 μM Nec-1, 5 hours
Rat hippocampal neurons = experiment: Amyloid-beta toxicity in rat hippocampal neurons, ATP assay; type: cell-based; conditions: Aβ25-35, 48 or 72 hours
Protocol: Viability was determined using an ATP assay. Similar results were also obtained using Aβ1-42.

RAW264.7 cells = experiment: LPS/zVAD.fmk-induced CICD of RAW264.7 macrophage cells, ATP assay; type: cell-based, mouse; conditions: 10 ng/ml LPS, 50 or 100 μM zVAD.fmk, 30 μM Nec-1, 24 hours
Protocol: Cell viability was determined 24 hours later using an ATP assay. Values represent the percentages of live cells normalized to the control DMSO-treated cells.

LC3-II = LC3-II induction (autophagy marker) in cultured cells, western blotting; type: cell-based
Source text: FIG. 11 is a set of gels showing the detection of cleaved LC3 in CICD of cultured cells and in ischemic brain injury. […] Equal amounts of cellular proteins were subjected to SDS-PAGE and western blotting with anti-LC3 and tubulin antibodies. Arrows point to the LC3II. […] Isoflurane-anesthetized SV-129 mice were subjected to two hours transient middle cerebral artery (MCA) occlusion by the intraluminal filament techniques. Ischemic and contralateral areas of the brain were collected at indicated times following MCA, lysed in RIPA buffer and equal amount of total protein were subjected to western blotting using anti-LC3 and tubulin antibodies. FIG. 11C is similar to FIG. 11B, except that mice were injected with 2 μL of 4 mM 7-Cl-Nec-1 icy at four and six hours, and brains were collected at eight hours after occlusion.
In this and subsequent panels, cell viability was determined via ATP assay. Numbers represent viability normalized to that of the DMSO-treated cells in the absence of TNFα and menadione. Throughout, error bars represent standard deviations. […] Representative images are shown. […] The ratio of LC3-II to tubulin signals was calculated (“Ratio”) and normalized to the value in the control sample. […] In FIG. 28H, expression of beclin-1 (“Bec”) and tubulin (“Tub”) in the stable populations of cells in FIG. 28G was analyzed by western blotting.

[2] = test system: FADD deficient Jurkat cells

methylthiohydantoin-tryptophane [Nec-1]
EC50 ([1]; 10 ng/mL human TNF-α, 24 hours, ATP-based viability, EC50 ± SD from at least two independent experiments, read-out: EC50 (μM) for inhibition of necroptosis): 0.05 µM
antinecroptotic (anti-CICD) activity, in words ([1]; FADD-deficient Jurkat cells, TNFα): allowed proliferation of TNFα-treated FADD-deficient cells at a rate indistinguishable from untreated cells; also recorded: prevented the death of TNFα-treated FADD-deficient Jurkat cells
EC50 ([1]; Jurkat FADD deficient cells treated with TNFα, read-out: EC50): 0.494 µM
EC50 ([1]; concentration required to rescue 50% of cell death, TNFα for 36 hours, ATP assay, read-out: EC50): 0.494 µM
inhibition of necrosis induced by TNFα/zVAD.fmk, in words (U937 cells): inhibition of cell death of U937 cells treated with TNFα and zVAD.fmk for 72 hours; also recorded: provided expected protection against TNFα/zVAD.fmk; also recorded: efficiently blocked necroptotic death in U937 cells in a concentration-dependent fashion
protection from MNNG-induced death, in words (FADD deficient JK cells): failed to protect cells from DNA alkylating agent 1-methyl-3-nitro-1-nitrosoguanidine (MNNG)-induced death
attenuation of amyloid-beta toxicity in hippocampal neurons, in words (Rat hippocampal neurons): protection by Nec-1 from amyloid-beta toxicity; also recorded: attenuation of the aggregated amyloid-beta peptide (Aβ) toxicity in primary rat hippocampal neurons
protection from LPS/zVAD.fmk toxicity, in words (RAW264.7 cells): protects from CICD induced by LPS in macrophage cells; also recorded: efficiently inhibited LPS-mediated sensitization of RAW264.7 cells to dose-dependent toxicity of zVAD.fmk
LC3-II induction caused by rapamycin, in words (LC3-II; BALB/c 3T3 cells, 2 μM rapamycin): had no effect on the LC3-II induction caused by rapamycin
necroptotic LC3-II induction in cells, in words (LC3-II; necroptotic stimuli (TNFα, TNFα-zVAD.fmk, FasL-zVAD.fmk)): the appearance of LC3II was efficiently inhibited by Nec-1; also recorded: efficiently blocked the necroptotic LC3-II induction
non-specific cytotoxicity, in words ([2]; 24 hours, ATP assay): does not induce non-specific cytotoxicity in FADD-deficient Jurkat cells
LD50 ([2]; compound in the absence of TNFα): 374 µM
